Laboratory results published in ChEMBL document CHEMBL2163236, “7-Oxo-[1,4]oxazino[2,3,4-ij]quinoline-6-carboxamides as selective CB(2) cannabinoid receptor ligands: structural investigations around a novel class of full agonists” (J Med Chem, 2012).

These compounds were tested against Cannabinoid receptor 1 (Homo sapiens, UniProt P21554) (assay: Displacement of [3H]CP-55940 from human recombinant CB1 receptor expressed in CHO cell membranes incubated for 90 mins by scintillation counting).
Sequence of Cannabinoid receptor 1 (Homo sapiens, UniProt P21554) (P21554 whole entry): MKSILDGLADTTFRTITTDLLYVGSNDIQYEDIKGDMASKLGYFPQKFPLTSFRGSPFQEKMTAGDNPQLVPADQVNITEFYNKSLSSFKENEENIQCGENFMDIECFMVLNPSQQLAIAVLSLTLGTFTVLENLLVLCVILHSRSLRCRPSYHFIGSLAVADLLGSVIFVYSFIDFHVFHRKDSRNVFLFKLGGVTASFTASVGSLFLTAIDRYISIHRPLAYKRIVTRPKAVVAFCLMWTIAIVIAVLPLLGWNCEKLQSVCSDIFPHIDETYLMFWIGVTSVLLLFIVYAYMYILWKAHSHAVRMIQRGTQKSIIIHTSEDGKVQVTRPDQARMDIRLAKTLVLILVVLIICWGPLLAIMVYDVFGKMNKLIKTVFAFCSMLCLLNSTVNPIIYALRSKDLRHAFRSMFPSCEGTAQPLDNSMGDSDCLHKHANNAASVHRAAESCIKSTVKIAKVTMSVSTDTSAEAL

SMILES	Ki
CCCC1COc2ccc(C)c3c(=O)c(C(=O)NC4CCCCC4)cn1c23 (racemic)	756 nM
CCCC1COc2cccc3c(=O)c(C(=O)NC45CC6CC(C)(CC(C)(C6)C4)C5)cn1c23 (racemic)	200 nM
CC1COc2cccc3c(=O)c(C(=O)NC4CCCCC4)cn1c23 (racemic)	2150 nM
CC1(C)COc2cccc3c(=O)c(C(=O)NC45CC6CC(CC(C6)C4)C5)cn1c23	221 nM
Cc1ccc(C2COc3cccc4c(=O)c(C(=O)NC56CC7CC(CC(C7)C5)C6)cn2c34)cc1 (racemic)	3880 nM
CCC1COc2cccc3c(=O)c(C(=O)NC4C5CC6CC(C5)CC4C6)cn1c23 (racemic)	389 nM
CCCC1COc2ccc(C)c3c(=O)c(C(=O)NC45CC6CC(CC(C6)C4)C5)cn1c23 (racemic)	450 nM
CCC1COc2cccc3c(=O)c(C(=O)NC4CCCCC4)cn1c23 (racemic)	821 nM
CCC1COc2c(OC)ccc3c(=O)c(C(=O)NC45CC6CC(CC(C6)C4)C5)cn1c23 (racemic)	521 nM
CC1Oc2cccc3c(=O)c(C(=O)NC45CC6CC(CC(C6)C4)C5)cn(c23)C1c1ccccc1 (racemic)	2440 nM
CC(C)[C@H]1COc2cccc3c(=O)c(C(=O)NC45CC6CC(CC(C6)C4)C5)cn1c23	858 nM

Organism: Homo sapiens
Test: Selectivity ratio of Ki for human recombinant CB1 receptor to KI for human recombinant CB2 receptor

SMILES	Ratio Ki
CCCC1COc2ccc(C)c3c(=O)c(C(=O)NC4CCCCC4)cn1c23 (racemic)	20
CCCC1COc2cccc3c(=O)c(C(=O)NC45CC6CC(C)(CC(C)(C6)C4)C5)cn1c23 (racemic)	55
CC1COc2cccc3c(=O)c(C(=O)NC4CCCCC4)cn1c23 (racemic)	36
CC1(C)COc2cccc3c(=O)c(C(=O)NC45CC6CC(CC(C6)C4)C5)cn1c23	4
Cc1ccc(C2COc3cccc4c(=O)c(C(=O)NC56CC7CC(CC(C7)C5)C6)cn2c34)cc1 (racemic)	9.41
CCC1COc2cccc3c(=O)c(C(=O)NC4C5CC6CC(C5)CC4C6)cn1c23 (racemic)	30
CCCC1COc2ccc(C)c3c(=O)c(C(=O)NC45CC6CC(CC(C6)C4)C5)cn1c23 (racemic)	43
CCC1COc2cccc3c(=O)c(C(=O)NC4CCCCC4)cn1c23 (racemic)	37
CCC1COc2c(OC)ccc3c(=O)c(C(=O)NC45CC6CC(CC(C6)C4)C5)cn1c23 (racemic)	77
CC1Oc2cccc3c(=O)c(C(=O)NC45CC6CC(CC(C6)C4)C5)cn(c23)C1c1ccccc1 (racemic)	7.33
CC(C)[C@H]1COc2cccc3c(=O)c(C(=O)NC45CC6CC(CC(C6)C4)C5)cn1c23	53

What follows are compounds tested against T1, Cannabinoid receptor 2 (Homo sapiens, UniProt P34972) (assay: Displacement of [3H]CP-55940 from human recombinant CB2 receptor expressed in CHO cell membranes incubated for 60 mins by scintillation counting).
T1 sequence (P34972 whole entry): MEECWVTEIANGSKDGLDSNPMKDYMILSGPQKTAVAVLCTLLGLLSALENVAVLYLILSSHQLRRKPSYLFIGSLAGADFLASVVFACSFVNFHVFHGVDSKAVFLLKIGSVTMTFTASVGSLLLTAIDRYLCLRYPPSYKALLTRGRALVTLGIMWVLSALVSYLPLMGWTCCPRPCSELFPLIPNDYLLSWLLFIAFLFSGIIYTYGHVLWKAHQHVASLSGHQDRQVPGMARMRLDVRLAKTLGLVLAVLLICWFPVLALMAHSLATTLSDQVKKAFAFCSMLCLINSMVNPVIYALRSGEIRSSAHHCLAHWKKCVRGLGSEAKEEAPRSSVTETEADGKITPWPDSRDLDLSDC

SMILES	Ki
CCCC1COc2ccc(C)c3c(=O)c(C(=O)NC4CCCCC4)cn1c23 (racemic)	38 nM
CCCC1COc2cccc3c(=O)c(C(=O)NC45CC6CC(C)(CC(C)(C6)C4)C5)cn1c23 (racemic)	3.62 nM
CC1COc2cccc3c(=O)c(C(=O)NC4CCCCC4)cn1c23 (racemic)	60 nM
CC1(C)COc2cccc3c(=O)c(C(=O)NC45CC6CC(CC(C6)C4)C5)cn1c23	56 nM
Cc1ccc(C2COc3cccc4c(=O)c(C(=O)NC56CC7CC(CC(C7)C5)C6)cn2c34)cc1 (racemic)	412 nM
CCC1COc2cccc3c(=O)c(C(=O)NC4C5CC6CC(C5)CC4C6)cn1c23 (racemic)	13.2 nM
CCCC1COc2ccc(C)c3c(=O)c(C(=O)NC45CC6CC(CC(C6)C4)C5)cn1c23 (racemic)	10.4 nM
CCC1COc2cccc3c(=O)c(C(=O)NC4CCCCC4)cn1c23 (racemic)	22 nM
CCC1COc2c(OC)ccc3c(=O)c(C(=O)NC45CC6CC(CC(C6)C4)C5)cn1c23 (racemic)	6.78 nM
CC1Oc2cccc3c(=O)c(C(=O)NC45CC6CC(CC(C6)C4)C5)cn(c23)C1c1ccccc1 (racemic)	332 nM
CC(C)[C@H]1COc2cccc3c(=O)c(C(=O)NC45CC6CC(CC(C6)C4)C5)cn1c23	16.2 nM

What follows are compounds tested against Cannabinoid receptor 1 (Rattus norvegicus, UniProt P20272) (assay: Displacement of [3H]CP-55940 from CB1 receptor in Sprague-Dawley rat brain by scintillation counting).
Sequence of Cannabinoid receptor 1 (Rattus norvegicus, UniProt P20272) (P20272 whole entry): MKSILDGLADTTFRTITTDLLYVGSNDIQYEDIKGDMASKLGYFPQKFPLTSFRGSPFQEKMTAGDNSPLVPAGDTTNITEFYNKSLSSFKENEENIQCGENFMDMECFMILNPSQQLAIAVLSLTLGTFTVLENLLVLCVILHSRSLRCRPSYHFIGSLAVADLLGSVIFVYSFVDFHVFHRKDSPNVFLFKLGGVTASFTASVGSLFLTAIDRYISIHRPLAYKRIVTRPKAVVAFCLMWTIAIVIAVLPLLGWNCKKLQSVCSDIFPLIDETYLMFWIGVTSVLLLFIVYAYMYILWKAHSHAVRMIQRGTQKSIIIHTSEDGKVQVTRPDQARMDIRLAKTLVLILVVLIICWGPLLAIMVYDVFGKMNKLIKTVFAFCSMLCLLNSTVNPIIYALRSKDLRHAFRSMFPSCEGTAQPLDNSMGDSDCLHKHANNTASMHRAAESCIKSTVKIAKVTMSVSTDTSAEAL

SMILES	Ki
CCCC1COc2ccc(C)c3c(=O)c(C(=O)NC4CCCCC4)cn1c23 (racemic)	874 nM
CCCC1COc2cccc3c(=O)c(C(=O)NC45CC6CC(C)(CC(C)(C6)C4)C5)cn1c23 (racemic)	476 nM
CC1COc2cccc3c(=O)c(C(=O)NC4CCCCC4)cn1c23 (racemic)	2630 nM
CC1(C)COc2cccc3c(=O)c(C(=O)NC45CC6CC(CC(C6)C4)C5)cn1c23	276 nM
Cc1ccc(C2COc3cccc4c(=O)c(C(=O)NC56CC7CC(CC(C7)C5)C6)cn2c34)cc1 (racemic)	4150 nM
CCC1COc2cccc3c(=O)c(C(=O)NC4C5CC6CC(C5)CC4C6)cn1c23 (racemic)	425 nM
CCCC1COc2ccc(C)c3c(=O)c(C(=O)NC45CC6CC(CC(C6)C4)C5)cn1c23 (racemic)	476 nM
CCC1COc2cccc3c(=O)c(C(=O)NC4CCCCC4)cn1c23 (racemic)	972 nM
CCC1COc2c(OC)ccc3c(=O)c(C(=O)NC45CC6CC(CC(C6)C4)C5)cn1c23 (racemic)	589 nM
CC1Oc2cccc3c(=O)c(C(=O)NC45CC6CC(CC(C6)C4)C5)cn(c23)C1c1ccccc1 (racemic)	2640 nM
CC(C)[C@H]1COc2cccc3c(=O)c(C(=O)NC45CC6CC(CC(C6)C4)C5)cn1c23	864 nM

The compounds below were run against T1, Cannabinoid receptor 2 (assay: Agonist activity at human recombinant CB2 receptor expressed in CHO cell membranes assessed as inhibition of forskolin-induced cAMP accumulation).
Assay type: functional, cell-based

SMILES	IC50
CCCC1COc2ccc(C)c3c(=O)c(C(=O)NC4CCCCC4)cn1c23 (racemic)	122 nM
CCCC1COc2cccc3c(=O)c(C(=O)NC45CC6CC(C)(CC(C)(C6)C4)C5)cn1c23 (racemic)	20 nM
CC1COc2cccc3c(=O)c(C(=O)NC4CCCCC4)cn1c23 (racemic)	245 nM
CC1(C)COc2cccc3c(=O)c(C(=O)NC45CC6CC(CC(C6)C4)C5)cn1c23	242 nM
Cc1ccc(C2COc3cccc4c(=O)c(C(=O)NC56CC7CC(CC(C7)C5)C6)cn2c34)cc1 (racemic)	2210 nM
CCC1COc2cccc3c(=O)c(C(=O)NC4C5CC6CC(C5)CC4C6)cn1c23 (racemic)	57 nM
CCCC1COc2ccc(C)c3c(=O)c(C(=O)NC45CC6CC(CC(C6)C4)C5)cn1c23 (racemic)	42 nM
CCC1COc2cccc3c(=O)c(C(=O)NC4CCCCC4)cn1c23 (racemic)	62 nM
CCC1COc2c(OC)ccc3c(=O)c(C(=O)NC45CC6CC(CC(C6)C4)C5)cn1c23 (racemic)	24 nM
CC1Oc2cccc3c(=O)c(C(=O)NC45CC6CC(CC(C6)C4)C5)cn(c23)C1c1ccccc1 (racemic)	1680 nM
CC(C)[C@H]1COc2cccc3c(=O)c(C(=O)NC45CC6CC(CC(C6)C4)C5)cn1c23	55 nM

What follows are compounds tested against T2, Cannabinoid receptor 2 (Rattus norvegicus, UniProt Q9QZN9) (assay: Displacement of [3H]CP-55940 from CB2 receptor in Sprague-Dawley rat spleen by scintillation counting).
T2 sequence (Q9QZN9 whole entry): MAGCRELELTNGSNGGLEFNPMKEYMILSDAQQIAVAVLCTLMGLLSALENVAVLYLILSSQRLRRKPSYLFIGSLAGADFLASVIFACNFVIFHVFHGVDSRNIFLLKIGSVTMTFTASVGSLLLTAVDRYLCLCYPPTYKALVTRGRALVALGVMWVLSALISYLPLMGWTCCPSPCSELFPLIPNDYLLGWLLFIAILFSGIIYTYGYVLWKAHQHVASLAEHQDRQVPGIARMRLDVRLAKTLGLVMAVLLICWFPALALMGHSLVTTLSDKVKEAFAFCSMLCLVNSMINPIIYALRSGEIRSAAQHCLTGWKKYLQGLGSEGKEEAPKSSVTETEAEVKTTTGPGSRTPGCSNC

SMILES	Ki
CCCC1COc2ccc(C)c3c(=O)c(C(=O)NC4CCCCC4)cn1c23 (racemic)	43 nM
CCCC1COc2cccc3c(=O)c(C(=O)NC45CC6CC(C)(CC(C)(C6)C4)C5)cn1c23 (racemic)	10.7 nM
CC1COc2cccc3c(=O)c(C(=O)NC4CCCCC4)cn1c23 (racemic)	65 nM
CC1(C)COc2cccc3c(=O)c(C(=O)NC45CC6CC(CC(C6)C4)C5)cn1c23	68 nM
Cc1ccc(C2COc3cccc4c(=O)c(C(=O)NC56CC7CC(CC(C7)C5)C6)cn2c34)cc1 (racemic)	482 nM
CCC1COc2cccc3c(=O)c(C(=O)NC4C5CC6CC(C5)CC4C6)cn1c23 (racemic)	16.1 nM
CCCC1COc2ccc(C)c3c(=O)c(C(=O)NC45CC6CC(CC(C6)C4)C5)cn1c23 (racemic)	13.2 nM
CCC1COc2cccc3c(=O)c(C(=O)NC4CCCCC4)cn1c23 (racemic)	24 nM
CCC1COc2c(OC)ccc3c(=O)c(C(=O)NC45CC6CC(CC(C6)C4)C5)cn1c23 (racemic)	9.12 nM
CC1Oc2cccc3c(=O)c(C(=O)NC45CC6CC(CC(C6)C4)C5)cn(c23)C1c1ccccc1 (racemic)	443 nM
CC(C)[C@H]1COc2cccc3c(=O)c(C(=O)NC45CC6CC(CC(C6)C4)C5)cn1c23	19.3 nM
